As a reminder, the IC50 is the concentration needed to halve the response being measured.

Assay [1] deals with A-375. As to the kind of experiment: Antiproliferative activity against human A375 cells assessed as reduction in cell viability incubated for 72 hrs by MTT assay. Format: functional, cell-based. The conditions noted are these: A-375, 72 h.
Assay [2] relates to HCT-116. As to the kind of experiment: Antiproliferative activity against human HCT116 cells assessed as reduction in cell viability incubated for 72 hrs by MTT assay. The assay is classed as functional, cell-based. The conditions noted are these: HCT-116, 72 h. (Tetrazolium dyes change colour on reduction, which living cells bring about.)
Assay [3] deals with HeLa. As to the kind of experiment: Antiproliferative activity against human HeLa cells assessed as reduction in cell viability incubated for 72 hrs by MTT assay. Format: functional, cell-based.
In assay [4] the target is Serine/threonine-protein kinase mTOR (Homo sapiens, UniProt P42345). As to the kind of experiment: Inhibition of recombinant human N-terminal FLAG-tagged mTOR (1362 to end residues) using Ulight-4E-BP1 as substrate incubated for 30 mins by fluorescence assay.
The target in assay [5] is PI3-kinase p110-delta/p85-alpha (Homo sapiens, UniProt O00329). As to the kind of experiment: Inhibition of recombinant human full length N-terminal GST-tagged PI3Kdelta (1 to 1044 residues)/PIK3R1 (1 to 724 residues) expressed in baculovirus expression system using PIP2 as substrate incubated for 2 hrs by ADP-Glo assay. (In general: ADP-Glo first removes unused ATP, then detects ADP through luciferase.)

In assay [6] the target is Phosphatidylinositol 4,5-bisphosphate 3-kinase catalytic subunit alpha isoform (Homo sapiens, UniProt P42336). The assay can be described thus: Inhibition of recombinant human full length N-terminal GST-tagged PI3Kalpha (1 to 1068 residues)/PIK3R1 (1 to 724 residues) expressed in baculovirus expression system using PIP2 as substrate incubated for 1 hr by ADP-Glo assay.

For assay [7], the system named is MCF7. The assay can be described thus: cells. The settings on record: Homo sapiens, MCF7, 72 h.
Assay [8] relates to HepG2. As to the kind of experiment: cells. The conditions noted are these: Homo sapiens, HepG2, 72 h.
Assay [9] relates to A549. The assay can be described thus: cells. The conditions noted are these: Homo sapiens, A549, 72 h.

Chain of Phosphatidylinositol 4,5-bisphosphate 3-kinase catalytic subunit alpha isoform (P42336 whole entry, looked up, the tested form may be a part, canonical isoform): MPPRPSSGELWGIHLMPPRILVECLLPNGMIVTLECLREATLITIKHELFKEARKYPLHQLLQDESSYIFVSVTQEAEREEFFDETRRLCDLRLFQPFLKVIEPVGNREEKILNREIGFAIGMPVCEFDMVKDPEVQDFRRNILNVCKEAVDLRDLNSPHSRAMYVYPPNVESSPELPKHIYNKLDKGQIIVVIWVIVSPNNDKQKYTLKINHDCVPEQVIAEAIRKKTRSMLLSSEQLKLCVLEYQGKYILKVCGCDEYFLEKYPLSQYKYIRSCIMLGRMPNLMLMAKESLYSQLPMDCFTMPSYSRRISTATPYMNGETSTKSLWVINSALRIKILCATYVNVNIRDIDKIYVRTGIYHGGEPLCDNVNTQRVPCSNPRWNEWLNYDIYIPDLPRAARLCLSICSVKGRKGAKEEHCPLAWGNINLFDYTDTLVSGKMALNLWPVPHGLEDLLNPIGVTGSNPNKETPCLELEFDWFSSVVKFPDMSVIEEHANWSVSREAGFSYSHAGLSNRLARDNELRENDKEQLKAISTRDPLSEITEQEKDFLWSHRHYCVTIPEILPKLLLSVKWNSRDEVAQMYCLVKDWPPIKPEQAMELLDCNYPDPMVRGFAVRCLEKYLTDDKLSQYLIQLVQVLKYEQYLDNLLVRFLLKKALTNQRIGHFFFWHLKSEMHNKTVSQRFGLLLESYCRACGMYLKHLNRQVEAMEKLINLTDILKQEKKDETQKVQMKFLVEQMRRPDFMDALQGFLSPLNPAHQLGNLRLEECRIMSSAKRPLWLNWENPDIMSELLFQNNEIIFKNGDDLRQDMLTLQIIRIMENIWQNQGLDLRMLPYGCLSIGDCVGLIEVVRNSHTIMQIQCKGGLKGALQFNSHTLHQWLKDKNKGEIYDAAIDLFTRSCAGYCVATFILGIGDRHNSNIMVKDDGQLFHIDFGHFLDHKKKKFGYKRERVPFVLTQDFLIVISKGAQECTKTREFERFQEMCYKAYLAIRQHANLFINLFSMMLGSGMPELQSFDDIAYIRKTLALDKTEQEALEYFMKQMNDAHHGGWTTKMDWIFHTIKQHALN
Chain of PI3-kinase p110-delta/p85-alpha (P27986 whole entry, the tested form may be a part): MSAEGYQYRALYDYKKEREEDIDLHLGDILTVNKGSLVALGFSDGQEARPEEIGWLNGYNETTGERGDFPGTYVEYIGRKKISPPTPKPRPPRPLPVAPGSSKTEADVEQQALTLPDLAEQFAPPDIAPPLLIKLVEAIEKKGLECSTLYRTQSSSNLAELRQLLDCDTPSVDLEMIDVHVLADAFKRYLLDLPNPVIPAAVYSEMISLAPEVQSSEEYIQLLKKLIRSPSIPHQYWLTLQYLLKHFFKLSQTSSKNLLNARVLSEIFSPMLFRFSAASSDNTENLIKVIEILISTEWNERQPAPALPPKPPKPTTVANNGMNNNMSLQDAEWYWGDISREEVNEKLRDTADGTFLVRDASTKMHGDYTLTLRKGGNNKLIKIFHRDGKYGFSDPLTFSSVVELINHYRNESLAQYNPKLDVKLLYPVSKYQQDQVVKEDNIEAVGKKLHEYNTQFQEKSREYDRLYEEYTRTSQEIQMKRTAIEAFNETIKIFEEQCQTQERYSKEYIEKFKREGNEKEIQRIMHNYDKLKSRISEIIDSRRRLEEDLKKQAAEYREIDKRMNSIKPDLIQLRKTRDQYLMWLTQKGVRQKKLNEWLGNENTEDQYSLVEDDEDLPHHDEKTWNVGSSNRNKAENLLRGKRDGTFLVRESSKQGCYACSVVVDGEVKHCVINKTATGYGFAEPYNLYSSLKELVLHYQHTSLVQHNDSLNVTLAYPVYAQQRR
Chain of PI3-kinase p110-delta/p85-alpha (O00329 whole entry, the tested form may be a part): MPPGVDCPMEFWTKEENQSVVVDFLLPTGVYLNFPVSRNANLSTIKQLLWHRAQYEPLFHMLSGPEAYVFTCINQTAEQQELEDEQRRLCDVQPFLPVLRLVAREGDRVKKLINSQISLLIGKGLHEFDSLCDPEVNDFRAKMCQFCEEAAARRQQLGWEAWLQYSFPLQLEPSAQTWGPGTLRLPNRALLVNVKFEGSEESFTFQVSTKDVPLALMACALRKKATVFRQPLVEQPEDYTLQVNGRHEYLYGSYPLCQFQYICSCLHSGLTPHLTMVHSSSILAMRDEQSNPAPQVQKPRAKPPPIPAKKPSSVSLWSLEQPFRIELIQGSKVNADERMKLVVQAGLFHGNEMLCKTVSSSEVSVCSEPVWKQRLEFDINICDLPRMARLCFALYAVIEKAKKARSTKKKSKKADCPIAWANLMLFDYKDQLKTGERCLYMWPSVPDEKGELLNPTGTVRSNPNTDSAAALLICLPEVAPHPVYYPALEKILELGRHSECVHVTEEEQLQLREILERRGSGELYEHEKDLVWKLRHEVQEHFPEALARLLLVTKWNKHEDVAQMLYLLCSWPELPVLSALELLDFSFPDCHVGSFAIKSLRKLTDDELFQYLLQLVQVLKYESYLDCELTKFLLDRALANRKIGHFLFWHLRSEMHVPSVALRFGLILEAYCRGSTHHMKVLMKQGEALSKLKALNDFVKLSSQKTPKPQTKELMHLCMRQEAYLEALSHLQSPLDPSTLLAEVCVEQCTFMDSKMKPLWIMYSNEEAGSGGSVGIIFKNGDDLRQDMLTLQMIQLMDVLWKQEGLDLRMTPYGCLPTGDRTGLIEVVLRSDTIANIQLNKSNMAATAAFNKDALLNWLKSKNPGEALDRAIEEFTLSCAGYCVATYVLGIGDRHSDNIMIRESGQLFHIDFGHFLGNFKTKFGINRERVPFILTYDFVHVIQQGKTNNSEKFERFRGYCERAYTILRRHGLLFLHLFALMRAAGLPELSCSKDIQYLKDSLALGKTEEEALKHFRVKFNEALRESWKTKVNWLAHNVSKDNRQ

For `COc1ncc(-c2ccc3c(c2)NC(=O)CO3)cc1NS(=O)(=O)c1ccc(F)cc1`, the IC50 in assay [1] stood at 26.3 µM; in assay [2], 24.9 µM; in assay [3] it was 7.11 µM; in [4] it was 0.635 µM; in assay [5], 0.3 µM; in [6], 0.5 µM. Further, the IC50 turned out to be 32.3 µM in assay [7], 6.59 µM in assay [8] and 8.07 µM in assay [9].

In the case of `COc1cccc(N2C(=O)COc3ccc(-c4cnc(OC)c(NS(=O)(=O)c5ccc(F)cc5)c4)cc32)c1`, the IC50 in assay [1] was more than 40 µM; in assay [2], more than 40 µM; in assay [3], more than 40 µM; in [4] it was more than 1 µM; in assay [5], more than 1 µM; in assay [6], more than 1 µM. Further, the results for the IC50 in assay [7], in assay [8] and in assay [9] were more than 40 µM, more than 40 µM and 11.2 µM, respectively.

As for `O=C1COc2ccc(-c3cnc4ccccc4c3)cc2N1c1ccc(Cl)cc1`, the 50% inhibitory concentration (IC50) was more than 40 µM in [1]; 36.1 µM in assay [2]; more than 40 µM in assay [3]; more than 1 µM in assay [4]; more than 1 µM in assay [5]; more than 1 µM in assay [6]. The IC50 in assay [7] was more than 40 µM; in assay [8], 32.7 µM; in [9], more than 40 µM.

On to `O=C1COc2ccc(-c3ccc(O)cc3)cc2N1c1ccc(Cl)cc1`, for which the IC50 in [1] was more than 40 µM; in assay [2], 39.6 µM; in [3], more than 40 µM; in assay [4] it was more than 1 µM; in [5], more than 1 µM; in assay [6], more than 1 µM. Moreover, the IC50 in assay [7], in assay [8] and in assay [9] was more than 40 µM in each case.

As for `COc1ccc(N2C(=O)COc3ccc(-c4cccc(NS(=O)(=O)c5ccc(F)cc5)c4)cc32)cc1`, the IC50 was 38.5 µM in assay [1]; 28.3 µM in assay [2]; 13.2 µM in [3]; more than 1 µM in assay [4]; more than 1 µM in assay [5]; more than 1 µM in assay [6]. The IC50 is 32.4 µM in [7], 29.8 µM in assay [8] and 38.2 µM in assay [9].

`COc1ccc(N2C(=O)COc3ccc(-c4cnc5ccccc5c4)cc32)cc1`: the IC50 was more than 40 µM in assay [1]; more than 40 µM in assay [2]; more than 40 µM in assay [3]; more than 1 µM in [4]; more than 1 µM in assay [5]; more than 1 µM in assay [6]. The IC50 in assay [7], in assay [8] and in assay [9] was more than 40 µM in each case.

Regarding `Cc1ccc(N2C(=O)COc3ccc(-c4cnc5ccccc5c4)cc32)cc1`, the IC50 in assay [1] is more than 40 µM; in [2], more than 40 µM; in assay [3], more than 40 µM; in assay [4] it was more than 1 µM; in [5] it was more than 1 µM; in assay [6], more than 1 µM. In addition, the IC50 in assay [7], in [8] and in assay [9] was more than 40 µM each time.

With `O=C1COc2ccc(-c3cnc(Cl)c(NS(=O)(=O)c4ccc(F)cc4)c3)cc2N1c1ccc(F)cc1`, the IC50 was more than 40 µM in assay [1]; 34.2 µM in assay [2]; more than 40 µM in assay [3]; 0.0179 µM in assay [4]; 0.005 µM in assay [5]; 0.0051 µM in assay [6]. In addition, the IC50 in assay [7] is 32.6 µM; in [8], more than 40 µM; in assay [9], 22.3 µM.

For `O=C1COc2ccc(-c3cccc(NS(=O)(=O)c4ccc(F)cc4)c3)cc2N1C1CC1`, the IC50 is more than 40 µM in [1]; more than 40 µM in [2]; more than 40 µM in assay [3]; more than 1 µM in [4]; more than 1 µM in assay [5]; more than 1 µM in assay [6]. In addition, the IC50 in assay [7], in [8] and in assay [9] was more than 40 µM each time.

With `Cc1ccc(N2C(=O)COc3ccc(-c4cnc(Cl)c(NS(=O)(=O)c5ccc(F)cc5)c4)cc32)cc1`, the IC50 was 38.9 µM in assay [1]; 34.3 µM in [2]; 32.3 µM in assay [3]; 0.0194 µM in assay [4]; 0.0037 µM in assay [5]; 0.0041 µM in [6]. Moreover, the values for the IC50 in assay [7], in [8] and in [9] were 32.6 µM, 39.6 µM and 30.9 µM, respectively.

For `COc1ncc(-c2ccc3c(c2)N(c2ccc(Cl)cc2)C(=O)CO3)cc1NS(=O)(=O)c1ccc(F)cc1`, the IC50 is 24.1 µM in [1]; 19.2 µM in [2]; 4.83 µM in [3]; 0.0126 µM in [4]; 0.018 µM in [5]; 0.022 µM in assay [6]. The half-maximal inhibitory concentration (IC50) in assay [7] turned out to be 27.6 µM; in assay [8], 17.9 µM; in [9] it was 8.35 µM.

Regarding `COc1cccc(N2C(=O)COc3ccc(-c4ccc(O)cc4)cc32)c1`, the IC50 in assay [1] was 30.4 µM; in assay [2], 15.3 µM; in [3], more than 40 µM; in assay [4], more than 1 µM; in assay [5] it was more than 1 µM; in assay [6], more than 1 µM. The IC50 is more than 40 µM in assay [7], 26.1 µM in [8] and more than 40 µM in [9].

For the compound `O=C1COc2ccc(-c3cccc(NS(=O)(=O)c4ccc(F)cc4)c3)cc2N1`, the IC50 in [1] is 20.1 µM; in assay [2], more than 40 µM; in assay [3], more than 40 µM; in assay [4], more than 1 µM; in assay [5], more than 1 µM; in assay [6] it was more than 1 µM. In addition, the IC50 in [7] is 18.3 µM; in assay [8] it was more than 40 µM; in assay [9], 32.1 µM.

In the case of `COc1cccc(N2C(=O)COc3ccc(-c4cccc(NS(=O)(=O)c5ccc(F)cc5)c4)cc32)c1`, the IC50 is more than 40 µM in assay [1]; more than 40 µM in assay [2]; more than 40 µM in assay [3]; more than 1 µM in assay [4]; more than 1 µM in assay [5]; more than 1 µM in assay [6]. The IC50 in assay [7], in [8] and in assay [9] was more than 40 µM each time.

With `O=C1COc2ccc(-c3cccc(NS(=O)(=O)c4ccc(F)cc4)c3)cc2N1c1ccc(F)cc1`, the IC50 in assay [1] was more than 40 µM; in [2], more than 40 µM; in assay [3], more than 40 µM; in assay [4], more than 1 µM; in [5] it was more than 10 µM; in assay [6] it was more than 1 µM. Further, the IC50 in assay [7], in [8] and in assay [9] was more than 40 µM in each case.

Turning to `COc1cccc(N2C(=O)COc3ccc(-c4cnc5ccccc5c4)cc32)c1`, the IC50 in [1] is 23.6 µM; in assay [2], 8.24 µM; in assay [3] it was 11.3 µM; in [4], more than 1 µM; in [5], more than 1 µM; in assay [6], more than 1 µM. Also, the values for the IC50 in [7], in assay [8] and in assay [9] were more than 40 µM, 2.08 µM and more than 40 µM, respectively.

Consider `COc1ncc(-c2ccc3c(c2)N(c2ccc(C)cc2)C(=O)CO3)cc1NS(=O)(=O)c1ccc(F)cc1`, for which the IC50 turned out to be 12.9 µM in assay [1]; 22.7 µM in [2]; 4.65 µM in assay [3]; 0.0138 µM in assay [4]; 0.017 µM in [5]; 0.012 µM in [6]. For the same compound, the figures for the IC50 in [7], in assay [8] and in assay [9] were 15.4 µM, 28.3 µM and 5.87 µM, respectively.

For `O=C1COc2ccc(-c3cnc(Cl)c(NS(=O)(=O)c4ccc(F)cc4)c3)cc2N1C1CC1`, the IC50 was 21.8 µM in [1]; 12.4 µM in [2]; 7.18 µM in assay [3]; 0.267 µM in [4]; 0.062 µM in assay [5]; 0.086 µM in [6]. The IC50 was determined as 16.7 µM in assay [7], 8.51 µM in assay [8] and 4.33 µM in assay [9].

Take `COc1ncc(-c2ccc3c(c2)N(c2ccc(F)cc2)C(=O)CO3)cc1NS(=O)(=O)c1ccc(F)cc1`: the IC50 in assay [1] was more than 40 µM; in assay [2] it was more than 40 µM; in assay [3] it was 10.5 µM; in assay [4] it was 0.0349 µM; in assay [5], 0.019 µM; in [6] it was 0.021 µM. In addition, the half-inhibitory concentration (IC50) in [7] was more than 40 µM; in assay [8], 36.4 µM; in [9], 6.5 µM.

Take `O=C1COc2ccc(-c3cnc(Cl)c(NS(=O)(=O)c4ccc(F)cc4)c3)cc2N1c1ccc(Cl)cc1`: the IC50 is 30.6 µM in assay [1]; 27.9 µM in [2]; more than 40 µM in [3]; 0.0141 µM in assay [4]; 0.0032 µM in [5]; 0.002 µM in assay [6]. The IC50 in [7] is 32.8 µM; in assay [8] it was 33.9 µM; in assay [9] it was 21.6 µM.

As for `O=C1COc2ccc(-c3cnc(Cl)c(NS(=O)(=O)c4ccc(F)cc4)c3)cc2N1C1CCCCC1`, the IC50 was more than 40 µM in [1]; more than 40 µM in [2]; 14.3 µM in assay [3]; 0.29 µM in assay [4]; 0.079 µM in assay [5]; 0.112 µM in [6]. Moreover, the figures for the IC50 in assay [7], in [8] and in assay [9] were more than 40 µM, more than 40 µM and 37.9 µM, respectively.

The record behind these values is ChEMBL document CHEMBL4364276, “Discovery of 4-phenyl-2H-benzo[b][1,4]oxazin-3(4H)-one derivatives as potent and orally active PI3K/mTOR dual inhibitors” (Eur J Med Chem, 2019).
